Reference: patent US20080234384A1, “BIARYL AND BIHETEROARYL COMPOUNDS USEFUL IN TREATING IRON DISORDERS” (XENON PHARMACEUTICALS INC., priority 2007, published 2008)
Structures can show the parent of a compound that is named as a salt.

target: T1, DMT1 (Homo sapiens, UniProt P49281); assay: DMT1 Activity Assay (In Vitro Assay); assay type: cell-based; settings: read-out: IC50 Activity Level
T1 sequence (P49281 1-568): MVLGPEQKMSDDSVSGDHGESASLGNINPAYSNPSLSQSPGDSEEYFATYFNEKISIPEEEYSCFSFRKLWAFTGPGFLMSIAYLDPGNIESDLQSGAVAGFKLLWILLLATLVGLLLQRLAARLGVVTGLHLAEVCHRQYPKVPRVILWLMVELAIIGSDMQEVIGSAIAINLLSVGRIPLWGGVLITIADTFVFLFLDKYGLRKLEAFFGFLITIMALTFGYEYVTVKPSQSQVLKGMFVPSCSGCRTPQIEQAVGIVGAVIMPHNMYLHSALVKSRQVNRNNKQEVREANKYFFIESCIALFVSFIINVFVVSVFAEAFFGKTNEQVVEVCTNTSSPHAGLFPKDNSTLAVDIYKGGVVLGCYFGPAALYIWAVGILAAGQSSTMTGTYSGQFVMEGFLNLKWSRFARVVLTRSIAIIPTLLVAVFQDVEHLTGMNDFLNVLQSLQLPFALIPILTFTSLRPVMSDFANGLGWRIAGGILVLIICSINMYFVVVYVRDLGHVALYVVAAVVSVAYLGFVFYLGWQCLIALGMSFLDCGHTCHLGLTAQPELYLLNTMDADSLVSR
Excerpt: In particular, identification of the compounds of the invention ability to modulate, preferably to inhibit, DMT1 activity, can be assessed using a variety of in vitro and in vivo assays, for measuring uptake of reduced iron (Fe^2+). One such protocol involves the screening of chemical agents for ability to modulate the activity of DMT1 thereby identifying it as a modulating agent. The in vitro activity of DMT1 can be measured in cell based assays by either directly measuring iron flux (using a radioactively labelled iron ^55Fe) or by measuring the fluorescence of a cell permeable iron fluorophore such as calcein. Stable cell lines overexpressing DMT1 are exposed to ^55Fe or loaded with calcein and then compound is applied. […] Alternatively, in another format electrophysiological techniques can be used to measure the current or iron or other metals traversing the cell membrane with DMT1 in a Xenopus oocyte or other cell based system (Gunshin et al., Nature, 1997, 31; 388(6641):482-8).
This example discloses various in vitro assay for testing and profiling test agents against DMT1 stably expressed in cells of either an endogenous or recombinant origin. These assays can use stable cell lines overexpressing DMT1 or intestinal cells and intestinal tissue expressing endogenous DMT1. DMT1 function could also be assessed in other cell types that express DMT1. Of greatest relevance would be the erythrocytes (e.g. K562 cells) or hepatocytes (e.g. […]).
DMT1 function can be assessed in a number of ways, including monitoring fluorescence changes of an iron fluorophore (e.g. calcein), monitoring uptake of radiolabelled iron (55Fe or ^59Fe) (Picard et al., J. Biol. Chem., 2000, 275(46):35738-45 and Wetli et al., Chem. Biol. 2006 September; 13(9):965-72), or by assessing the current or transport of iron and other metals into the cells or tissues using standard electrophysiological techniques (Gunshin et al., Nature, 1997, 388(6641):482-8.).
Variations of these assays involve alterations of incubation times, the iron status of the cells and tissues (which may be modulated by chemical chelators or by harvesting from iron deficient animals), the metal cation detected and the pH of the reaction can generally be made by conventional techniques known to those skilled in the art.

Compound	IC50
N=C(N)SCc1cc([N+](=O)[O-])ccc1Oc1cc(Cl)ccc1CSC(=N)N [Example 2.19, 2-[2-({[amino(imino)methyl]thio}methyl)-5-chlorophenoxy]-5-nitrobenzyl imidothiocarbamate dihydrobromide]	≥ 1000 nM
N=C(N)SCc1cc(F)ccc1Oc1cccc(Cl)c1CSC(=N)N [Example 2.10, 2-[2-(2-carbamimidoylsulfanylmethyl-3-chlorophenoxy)-5-fluorobenzyl]isothiourea dihydrobromide]	≥ 1000 nM
N=C(N)SCc1ccccc1Oc1ccc(Cl)cc1CSC(=N)N [Example 2.16, 2-[2-({[amino(imino)methyl]thio}methyl)-4-chlorophenoxy]benzyl imidothiocarbamate dihydrobromide]	≥ 1000 nM
Cc1ccc(CSC(=N)N)c(Sc2ccc(F)cc2CSC(=N)N)c1 [Example 1.5, 2-[2-(2-carbamimidoylsulfanylmethyl-5-methylphenylsulfanyl)-5-fluorobenzyl]isothiourea dihydrobromide]	≥ 1000 nM
CN(c1ccccc1CSC(=N)N)c1ccccc1CSC(=N)N [Example 1.28, 2,2′-(methylazanediyl)bis(2,1-phenylene)bis-(methylene)dicarbamimidothioate trihydrobromide]	100 to 1000 nM
N=C(N)SCc1cc(F)ccc1Oc1cc(F)ccc1CSC(=N)N [Example 2.12, 2-[2-(2-carbamimidoylsulfanylmethyl-5-fluorophenoxy)-5-fluorobenzyl]isothiourea dihydrobromide]	100 to 1000 nM
N=C(N)SCCc1ccccc1Sc1ccccc1CCSC(=N)N [Example 1.31, dihydrobromide]	≥ 1000 nM
N=C(N)SCc1ccc(Cl)cc1Oc1cc([N+](=O)[O-])ccc1CSC(=N)N [Example 2.9, 2-[2-({[amino(imino)methyl]thio}methyl)-5-chlorophenoxy]-4-nitrobenzyl imidothiocarbamate dihydrobromide]	≥ 1000 nM
N=C(N)SCc1cc(F)ccc1Oc1ccc(Cl)cc1CSC(=N)N [Example 2.11, 2-[2-(2-carbamimidoylsulfanylmethyl-4-chlorophenoxy)-5-fluorobenzyl]isothiourea dihydrobromide]	100 to 1000 nM
N=C(N)SCc1cc(F)ccc1Sc1cscc1CSC(=N)N [Example 2.5, (4-{[2-({[amino(imino)methyl]thio}methyl)-4-fluorophenyl]thio}-3-thienyl)methyl imidothiocarbamate dihydrochloride]	100 to 1000 nM
N=C(N)SCc1ccccc1Oc1ccc(F)cc1CSC(=N)N [Example 2.21, 2-[2-({[amino(imino)methyl]thio}methyl)-4-fluorophenoxy]benzyl imidothiocarbamate dihydrobromide]	100 to 1000 nM
N=C(N)SCc1ccccc1Oc1cccc(Cl)c1CSC(=N)N [Example 2.17, 2-[2-({[amino(imino)methyl]thio}methyl)-3-chlorophenoxy]benzyl imidothiocarbamate dihydrobromide]	≥ 1000 nM
N=C(N)SCc1ccccc1Sc1ccc(F)cc1CSC(=N)N [Example 1.2, 2-[2-(2-carbamimidoylsulfanylmethyl-4-fluorophenylsulfanyl)benzyl]-isothiourea dihydrobromide]	100 to 1000 nM
N=C(N)SCc1cc(F)ccc1Sc1sccc1CSC(=N)N [Example 2.6, (2-{[2-({[amino(imino)methyl]thio}methyl)-4-fluorophenyl]thio}-3-thienyl)methyl imidothiocarbamate dihydrochloride]	≥ 1000 nM
N=C(N)SCCc1ccccc1Sc1ccccc1CSC(=N)N [Example 1.25, 2-[2-(2-carbamimidoylsulfanylethylphenylsulfanyl)benzyl]isothiourea dihydrobromide]	≥ 1000 nM
CNC(=N)SCc1ccccc1Sc1ccccc1CSC(=N)NC [Example 1.29, 2-[2-(2-methylcarbamimidoylsulfanylmethylphenylsulfanyl)benzyl]-methylisothiourea dihydrobromide]	≥ 1000 nM

Compound	IC50
CS(=O)(=O)c1ccc(Sc2ccc(F)cc2CSC(=N)N)c(CSC(=N)N)c1 [Example 1.30, 2-[2-(2-carbamimidoylsulfanylmethyl-4-fluorophenylsulfanyl)-5-(methylsulfonyl)benzyl]isothiourea dihydrobromide]	100 to 1000 nM
N#Cc1ccc(Sc2ccc(Cl)cc2CSC(=N)N)c(CSC(=N)N)c1 [Example 2.8, 2-{[2-({[amino(imino)methyl]thio}methyl)-4-chlorophenyl]thio}-5-cyanobenzyl imidothiocarbamate dihydrobromide]	≥ 1000 nM
Cc1ccc(Sc2ccccc2CSC(=N)N)c(CSC(=N)N)c1 [Example 1.10, 2-[2-(2-carbamimidoylsulfanylmethyl-4-methylphenylsulfanyl)-benzyl]isothiourea dihydrobromide]	100 to 1000 nM
NC(=S)Nc1ccccc1Sc1ccccc1NC(N)=S [Example 8, 1,1′-(2,2′-thiobis(2,1-phenylene))dithiourea]	≥ 1000 nM
N=C(N)SCc1ccccc1C(=O)c1ccc(Cl)cc1CSC(=N)N [Example 2.29, 2-(6-(amidinothiomethyl)phenyl)carbonyl-1-(amidinothiomethyl)-5-chlorobenzene dihydrobromide]	≥ 1000 nM
CN(C)S(=O)(=O)c1ccc(Sc2ccc(F)cc2CSC(=N)N)c(CSC(=N)N)c1 [Example 2.2, 2-({2-({[amino(imino)methyl]thio}methyl)-4-[(dimethylamino)sulfonyl]phenyl}thio)-5-fluorobenzyl imidothiocarbamate dihydrobromide]	100 to 1000 nM
N=C(N)SCc1ccccc1-c1ccccc1CSC(=N)N [Example 9, 2-(2′-carbamimidoylsulfanylmethyl-biphenyl-2-ylmethyl)-isothiourea]	≥ 1000 nM
N=C(N)SCc1cc(F)ccc1Sc1ccc(F)cc1CSC(=N)N [Example 2, 2-[2-(2-carbamimidoylsulfanylmethyl-4-fluoro-phenylsulfanyl)-5-fluoro-benzyl]-isothiourea dihydrobromide]	100 to 1000 nM
N=C(N)SCc1cc(F)ccc1Sc1ccc(Cl)cc1CSC(=N)N [Example 1.20, 2-[2-(2-carbamimidoylsulfanylmethyl-4-chlorophenylsulfanyl)-5-fluorobenzyl]isothiourea dihydrobromide]	100 to 1000 nM
COC(=O)c1cccc(CSC(=N)N)c1-c1c(CSC(=N)N)cccc1C(=O)OC [Example 2.24, dimethyl 6,6′-bis(carbamimidoylthiomethyl)biphenyl-2,2′-dicarboxylate dihydrobromide]	≥ 1000 nM
N=C(N)SCc1ccccc1Oc1ccccc1CSC(=N)N [Example 2.15, 2-[2-(2-carbamimidoylsulfanylmethylphenoxy)benzyl]isothiourea dihydrobromide]	≥ 1000 nM
N=C(N)SCc1cccc(CSC(=N)N)c1-c1c(CSC(=N)N)cccc1CSC(=N)N [Example 2.23, biphenyl-2,2′-6,6′-tetrayltetrakis(methylene)tetracarbamimidothioate tetrahydrobromide]	≥ 1000 nM
N=C(N)SCCc1cc(Cl)ccc1Sc1ccc(F)cc1CSC(=N)N [Example 1.24, 2-[2-(2-carbamimidoylsulfanylethyl-4-chlorophenylsulfanyl)-5-fluorobenzyl]isothiourea dihydrobromide]	100 to 1000 nM
N=C(N)SCc1ccccc1Sc1ccc(N)cc1CSC(=N)N [Example 1.19, 2-[2-(2-carbamimidoylsulfanylmethylphenylsulfanyl)-5-aminobenzyl]-isothiourea trihydrobromide]	100 to 1000 nM
N=C(N)SCc1cc(F)ccc1Oc1ccc([N+](=O)[O-])cc1CSC(=N)N [Example 2.14, 2-[2-({[amino(imino)methyl]thio}methyl)-4-fluorophenoxy]-5-nitrobenzyl imidothiocarbamate dihydrobromide]	100 to 1000 nM
N=C(N)SCc1ccccc1Sc1ccc2ccccc2c1CSC(=N)N [Example 1.13, 2-[2-(1-carbamimidoylsulfanylmethylnaphthalen-2-ylsulfanyl)benzyl]-isothiourea dihydrobromide]	≥ 1000 nM
